Patent US7943146B2, “Immunizing compositions comprising HIV-1 proviral constructs with an inactive p6 gag TSG101 UEV binding domain capable of producing budding-defective viral particles that remain tethered to the cell surface” (priority 2001, dated 2011)
pIC50: −log10 of the molar value.

Columns and labels:
[1] = molecular target: T1, interaction between GAGp6 and Tsg101 (Homo sapiens, UniProt Q99816); experiment: In vitro binding assay: GST-p6 on plate, myc-tagged Tsg101 (residues 1-207), competition by peptide; conditions: FIG. 3, different peptide concentrations, fluorescence signal
T1 construct: Drosophila S2 cell lysate myc-tagged Tsg101 (residues 1-207); made in house; host or cells: Drosophila S2 cells (Tsg101, used as cell lysate)
T1 sequence (Q99816 1-207): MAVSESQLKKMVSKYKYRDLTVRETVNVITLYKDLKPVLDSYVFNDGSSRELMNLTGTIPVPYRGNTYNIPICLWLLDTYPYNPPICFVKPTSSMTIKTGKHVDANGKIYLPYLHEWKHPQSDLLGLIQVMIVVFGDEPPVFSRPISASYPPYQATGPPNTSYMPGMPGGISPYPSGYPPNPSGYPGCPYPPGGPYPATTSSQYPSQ
Experimental: A fusion protein with a GST tag fused to the HIV-1 GAGp6 domain was recombinantly expressed and purified by chromatography. In addition, a GAGp6 peptide containing the first 14 amino acid residues (“p6(1-14)”) was synthesized chemically by standard peptide synthesis methods. The peptide was purified by conventional protein purification techniques, e.g., by chromatography.
Nunc/Nalgene Maxisorp plates were incubated overnight at 4° C. or for 1-2 hrs at room temperature in 100 μl of a protein coupling solution containing purified GST-p6 and 50 mM Carbonate, pH=9.6. This allowed the attachment of the GST-p6 fusion protein to the plates. Liquids in the plates were then emptied and wells filled with 400 μl/well of a blocking buffer (SuperBlock; Pierce-Endogen, Rockford, Ill.). […]
Plates were then washed 4×100 μl with 1×PBST solution (Invitrogen; Carlsbad, Calif.). […] Plates were then read on a Packard Fusion instrument at an excitation wavelength of 325 nm and an emission wavelength of 420 nm. […]
Different concentrations of the p6(1-14) peptide were tested, and the relative intensities of the fluorescence signals obtained at different concentrations were plotted against the peptide concentrations. […]

[2] = Cytotoxicity measurement in uninfected PBMCs (MTS staining); assay type: cell-based; conditions: human PBMCs without virus, seven days; read-out: TC50
Experimental: At assay termination the assay plates were stained with the soluble tetrazolium-based dye MTS (CellTiter Reagent, Promega) to determine cell viability and quantify compound toxicity. MTS is metabolized by the mitochondria enzymes of metabolically active cells to yield a soluble formazan product, allowing the rapid quantitative analysis cell viability and compound cytotoxicity. […] At termination of the assay, 20 μl of MTS reagent was added per well. The wells were incubated overnight for the HIV cytoprotection assay at 37° C. The incubation intervals were chosen based on empirically determined times for optimal dye reduction in each cell type. Adhesive plate sealers were used in place of the lids, the sealed plate was inverted several times to mix the soluble formazan product and the plate was read spectrophotometrically at 490 nm with a Molecular Devices Vmax plate reader.

HIV = experiment: microbe, parasite or virus in culture; assay type: cell-based, HIV-1
Experimental: Fresh human blood was obtained commercially from Interstate Blood Bank, Inc. (Memphis, Tenn.). The lymphotropic clinical isolate HIV-1ROJO was obtained from a pediatric patient attending the AIDS Clinic at the University of Alabama at Birmingham. The laboratory-adapted HIV-1IIIB strain was propagated and tittered in fresh human PBMCs; pre-titered aliquots of HIV-1ROJO and Hiv-1IIIB were removed from the freezer (−80° C.) and thawed rapidly to room temperature in a biological safety cabinet immediately before use. Phytohemagglutinin (PHA-P) was obtained from Sigma (St. Louis, Mo.) and recombinant IL-2 was obtained from Amgen (San Francisco, Calif.).
Fresh human PBMCs were isolated from screened donors, seronegative for HIV and HBV. Leukophoresed blood was diluted 1:1 with Dulbecco's phosphate buffered saline (PBS), layered over 14 mL of Ficoll-Hypaque density gradient in a 50 mL centrifuge tube and then centrifuged for 30 minutes at 600×g. Banded PBMCs were aspirated from the resulting interface and subsequently washed 2× with PBS by low speed centrifugation. After the final wash, cells were enumerated by trypan blue exclusion and re-suspended at 1×10^7 cells/mL in RPMI 1640 supplemented with 15% Fetal Bovine Serum (FBS), 2 mM L-glutamine, 4 μg/mL PHA-P. The cells were allowed to incubate for 48-72 hours at 37° C. After incubation, PBMCs were centrifuged and reset in RPMI 1640 with 15% FBS, 2 mM L-glutamine, 100 U/ml penicillin, 100 μg/mL streptomycin, 10 μg/mL gentamycin, and 20 U/mL recombinant human IL-2. PBMCs were maintained in this medium at a concentration of 1-2×10^6 cells/mL with biweekly medium changes until used in the assay protocol.
For the standard PBMC assay, PHA-P stimulated cells from at least two normal donors were pooled, diluted in fresh medium to a final concentration of 1×10^6 cells/mL, and plated in the interior wells of 96 well round bottom microplate at 50 μL/well (5×10^4 cells/well). Test drug dilutions were prepared at a 2× concentration in microtiter tubes and […] of each concentration was placed in appropriate wells in a standard format. […] Wells with cells and virus alone were used for virus control. Separate plates were prepared identically without virus for drug cytotoxicity studies using an XTT assay system. The PBMC cultures were maintained for seven days following infection, at which time cell-free supernate samples were collected and assayed for reverse transcriptase activity as described below.
A microtiter based reverse transcriptase (RT) reaction was utilized. See Buckheit et al., AIDS Research and Human Retroviruses 7:295-302 (1991). Tritiated thymidine triphosphate (NEN) (TTP) was resuspended in distilled H2O at 5 Ci/ml. Poly rA and oligo dT were prepared as a stock solution which was kept at −20° C. The RT reaction buffer was prepared fresh on a daily basis and consists of 125 μl 1M EGTA, 125 μl dH2O, 110 μl 10% SDS, 50 μl 1M Tris (pH 7.4), 50 μl 1M DTT, and 40 μl 1M MgCL2. These three solutions were mixed together in a ratio of 2 parts TTP, 1 part poly rA:oligo dT, and 1 part reaction buffer. Ten microliters of this reactions mixture was placed at a round bottom microtiter plate and 15 μl of virus containing supernatant was added and mixed. […] Opti-Fluor-O (Packard) was added to each sample and incorporated radioactivity was quantified utilizing a Wallac 1450 MicroBeta Plus liquid scintillation counter.

| Compound | inhibition of the interaction between GAGp6 and Tsg101 [1] | CC50 at 7 days [2] | pIC50 (HIV; Human immunodeficiency virus 1, PBMC, 168 h, PHA-P stimulated human PBMCs, MOI≈0.1, seven days, RT activity in supernate) | Comments (anti-HIV activity) (HIV; human PBMCs) |
| --- | --- | --- | --- | --- |
| p6(1-14): GAGp6 peptide containing the first 14 amino acid residues, synthesized chemically (LQSRPEPTAPPEES) | competitive inhibition |  |  |  |
| Cc1cn([C@H]2C[C@H](N=[N+]=[N-])[C@@H](CO)O2)c(=O)[nH]c1=O [AZT, 3′-Azido-3′-deoxythymidine, reference compound] |  | > 1000 nM | 8.10 | Control; Highly Active |
